Columns and labels:
W138 = assay: Cell growth in liquid culture (alamarBlue); settings: W138, 72 h, read-out: IC50 (uM) Liquid culture
CCD112/N = assay: Cell growth in liquid culture (alamarBlue); settings: 72 h, read-out: IC50 (uM) Liquid culture
MDA_MB-435 [1] = assay: Cell growth in soft agar culture (alamarBlue); settings: Homo sapiens, MDA-MB-435, 168 h, read-out: IC50 (uM) Soft agar
OVCAR-1 = assay: Cell growth in liquid culture (alamarBlue); settings: OVCAR1, 72 h, read-out: IC50 (uM) Liquid culture
SW480 [2] = assay: Cell growth in liquid culture (alamarBlue); settings: Homo sapiens, SW480, 72 h, read-out: IC50 (uM) Liquid culture
SW480 [3] = assay: Cell growth in soft agar culture (alamarBlue); settings: Homo sapiens, SW480, 168 h, read-out: IC50 (uM) Soft agar
MDA_MB-435 [4] = assay: Cell growth in liquid culture (alamarBlue); settings: Homo sapiens, MDA-MB-435, 72 h, read-out: IC50 (uM) Liquid culture
A2058 = assay: Cell growth in liquid culture (alamarBlue); settings: Homo sapiens, A2058, 72 h, read-out: IC50 (uM) Liquid culture
NCI-H460 [5] = assay: Cell growth in liquid culture (alamarBlue); settings: Homo sapiens, NCI-H460, 72 h, read-out: IC50 (uM) Liquid culture
Caov-3 = assay: Cell growth in liquid culture (alamarBlue); settings: Homo sapiens, Caov-3, 72 h, read-out: IC50 (uM) Liquid culture
Pc3M/N [6] = assay: Cell growth in soft agar culture (alamarBlue); settings: Homo sapiens, PC-3M, 168 h, read-out: IC50 (uM) Soft agar
PC3 = assay: Cell growth in liquid culture (alamarBlue); settings: Homo sapiens, PC-3, 72 h, read-out: IC50 (uM) Liquid culture
OVCAR-8 [7] = assay: Cell growth in liquid culture (alamarBlue); settings: Homo sapiens, OVCAR-8, 72 h, read-out: IC50 (uM) Liquid culture
ASPC-1 = assay: Cell growth in liquid culture (alamarBlue); settings: Homo sapiens, ASPC1, 72 h, read-out: IC50 (uM) Liquid culture
HCT116 = assay: Cell growth in soft agar culture (alamarBlue); settings: Homo sapiens, HCT-116, 168 h, read-out: IC50 (uM) Soft agar
NCI-H460 [8] = assay: Cell growth in soft agar culture (alamarBlue); settings: Homo sapiens, NCI-H460, 168 h, read-out: IC50 (uM) Soft agar
HCT116-P53(−) = assay: Cell growth in liquid culture (alamarBlue); settings: 72 h, read-out: IC50 (uM) Liquid culture
UACC62 = assay: Cell growth in liquid culture (alamarBlue); settings: Homo sapiens, UACC-62, 72 h, read-out: IC50 (uM) Liquid culture
OVCAR-8 [9] = assay: Cell growth in soft agar culture (alamarBlue); settings: Homo sapiens, OVCAR-8, 168 h, read-out: IC50 (uM) Soft agar
MDA-231 [10] = assay: Cell growth in soft agar culture (alamarBlue); settings: Homo sapiens, MDA-MB-231, 168 h, read-out: IC50 (uM) Soft agar
A549 = assay: Cell growth in liquid culture (alamarBlue); settings: Homo sapiens, A549, 72 h, read-out: IC50 (uM) Liquid culture
HS578 [11] = assay: Cell growth in soft agar culture (alamarBlue); settings: Hs578, 168 h, read-out: IC50 (uM) Soft agar
MCF7 = assay: Cell growth in liquid culture (alamarBlue); settings: Homo sapiens, MCF7, 72 h, read-out: IC50 (uM) Liquid culture
PA-1 = assay: Cell growth in liquid culture (alamarBlue); settings: Homo sapiens, PA-1, 72 h, read-out: IC50 (uM) Liquid culture
HS578 [12] = assay: Cell growth in liquid culture (alamarBlue); settings: Hs578, 72 h, read-out: IC50 (uM) Liquid culture
Panc-1 = assay: Liquid growth culture with and without added glucose (alamarBlue); assay type: cell-based; settings: Homo sapiens
Excerpt: (§1) The method is as follows:

HCT-116 = assay: as above; assay type: cell-based; settings: Homo sapiens
Excerpt: as §1

Pc3M/N [13] = assay: as above; assay type: cell-based; settings: Homo sapiens, PC-3M
Excerpt: as §1

OVCAR-5 = assay: Cell growth in soft agar culture (alamarBlue); settings: Homo sapiens, OVCAR-5, 168 h, read-out: IC50 (uM) Soft agar
MDA-231 [14] = assay: Cell growth in liquid culture (alamarBlue); settings: Homo sapiens, MDA-MB-231, 72 h, read-out: IC50 (uM) Liquid culture

Question: How did the IC50 (W138) turn out when `Cc1cc(/C=C/c2ccc3cc(N(C)C)ccc3[n+]2C)c(C)n1-c1ccccc1` [Example 1, Pyrvinium Phosphate] was run?
Answer: 0.1 to 0.3 µM

Question: And the IC50 (CCD112/N)?
Answer: ~1 µM

Question: What about the IC50 (MDA_MB-435 [1]) of the same compound?
Answer: 0.03 to 0.1 µM

Question: And the IC50 (OVCAR-1)?
Answer: 0.03 to 0.1 µM

Question: What about the IC50 (SW480 [2]) of the same compound?
Answer: 0.3 to 1 µM

Question: And the IC50 (SW480 [3])?
Answer: 0.3 to 1 µM

Question: What about the IC50 (MDA_MB-435 [4]) of the same compound?
Answer: 0.3 to 1 µM

Question: What about the IC50 (A2058) of the same compound?
Answer: 0.1 to 0.3 µM

Question: And the IC50 (NCI-H460 [5])?
Answer: 0.1 to 0.33 µM

Question: What about the IC50 (Caov-3) of the same compound?
Answer: 0.03 to 0.1 µM

Question: And the IC50 (Pc3M/N [6])?
Answer: ~0.3 µM

Question: And the IC50 (PC3)?
Answer: 0.1 to 0.3 µM

Question: And the IC50 (OVCAR-8 [7])?
Answer: 0.1 to 0.3 µM

Question: And the IC50 (ASPC-1)?
Answer: 0.3 to 1 µM

Question: What about the IC50 (HCT116) of the same compound?
Answer: 0.1 to 0.3 µM

Question: And the IC50 (NCI-H460 [8])?
Answer: 0.03 to 0.1 µM

Question: And the IC50 (HCT116-P53(−))?
Answer: > 1 µM

Question: And the IC50 (UACC62)?
Answer: 0.1 to 0.3 µM

Question: And the IC50 (OVCAR-8 [9])?
Answer: 0.03 to 0.1 µM

Question: And the IC50 (MDA-231 [10])?
Answer: < 0.03 µM

Question: What about the IC50 (A549) of the same compound?
Answer: 0.1 to 0.3 µM

Question: What about the IC50 (HS578 [11]) of the same compound?
Answer: 0.03 to 0.1 µM

Question: What about the IC50 (MCF7) of the same compound?
Answer: 0.03 to 0.1 µM

Question: What about the IC50 (PA-1) of the same compound?
Answer: 0.03 to 0.1 µM

Question: What about the IC50 (HS578 [12]) of the same compound?
Answer: 0.1 to 0.3 µM

Question: What about the IC80 (Panc-1; PANC-1, Panc-1, (+) Glu) of the same compound?
Answer: > 1 µM

Question: What about the IC80 (Panc-1; PANC-1, Panc-1, (−) Glu) of the same compound?
Answer: 0.1 µM

Question: And the IC80 (HCT-116; HCT-116, HCT-116, (+) Glu)?
Answer: 1 µM

Question: What about the IC80 (HCT-116; HCT-116, HCT-116, (−) Glu) of the same compound?
Answer: 0.1 µM

Question: And the IC80 (Pc3M/N [13]; (+) Glu)?
Answer: 1 µM

Question: What about the IC80 (Pc3M/N [13]; (−) Glu) of the same compound?
Answer: 0.1 µM

Question: And the IC50 (OVCAR-5)?
Answer: 0.03 to 0.1 µM

Question: And the IC50 (MDA-231 [14])?
Answer: 0.1 to 0.3 µM

From US20080281105A1, “Novel Quinolinium Salts and Derivatives” (IMMUSOL INCORPORATED, priority 2005, published 2008)
